The record followed here is patent publication US12064426B2, “Selective inhibitors of ROCK1 and ROCK2 protein kinases and uses thereof” (GENOSCO Inc., priority 2021, dated 2024).

SMILES strings stand for the structures.

The target of test [1] is T1, Recombinant ROCK1 (amino acids 1-477) (Homo sapiens, UniProt Q13464).
T1 construct: Recombinant ROCK1 (amino acids 1-477); by word order, ROCK1 from Carna Biosciences
The test is described as follows: ROCK inhibition assay, LANCE Ultra TR-FRET kinase assay (ROCK1). It counts as biochemical. Particulars: 1 μM ATP, 50 nM ULight-CREBtide substrate. Put shortly: (§1)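 Reaction buffer 50 mM HEPES pH 7.5, 10 mM MgCl2, 1 mM EGTA, 2 mM DTT; kinase, ULight-CREBtide (50 nM) and ATP (ROCK1 1 μM, ROCK2 4 μM) react 1 h at room temperature. Phospho-Ser133 detected by europium antibody after 10 mM EDTA stop, TR-FRET ex 320 nm; IC50 calculated.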

The target in test [2] is T2, Recombinant ROCK2 (amino acids 5-554) (Homo sapiens, UniProt O75116).
T2 construct: ROCK2 (amino acids 5-554); by word order, ROCK2 from SignalChem
T2 sequence (O75116 5-554): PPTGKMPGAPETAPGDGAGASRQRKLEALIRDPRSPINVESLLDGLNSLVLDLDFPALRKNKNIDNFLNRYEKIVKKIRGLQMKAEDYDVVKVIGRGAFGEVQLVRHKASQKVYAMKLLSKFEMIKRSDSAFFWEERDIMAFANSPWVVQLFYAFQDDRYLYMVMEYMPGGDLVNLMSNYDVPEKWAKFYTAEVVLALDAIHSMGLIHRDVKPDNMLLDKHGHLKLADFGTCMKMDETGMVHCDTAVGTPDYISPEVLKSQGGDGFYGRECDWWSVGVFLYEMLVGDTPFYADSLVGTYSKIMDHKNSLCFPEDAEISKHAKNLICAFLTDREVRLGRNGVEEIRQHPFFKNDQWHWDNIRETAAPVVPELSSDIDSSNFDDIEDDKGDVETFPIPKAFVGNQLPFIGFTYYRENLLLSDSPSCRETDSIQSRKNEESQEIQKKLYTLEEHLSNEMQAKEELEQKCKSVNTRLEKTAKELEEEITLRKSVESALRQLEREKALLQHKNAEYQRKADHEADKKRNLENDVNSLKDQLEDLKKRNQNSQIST
The test is described as follows: ROCK inhibition assay, LANCE Ultra TR-FRET kinase assay (ROCK2). It counts as biochemical. Particulars: 4 μM ATP, 50 nM ULight-CREBtide substrate. The essentials:
as §1
For orientation: In TR-FRET formats the signal depends on donor and acceptor labels being close together.

T1 sequence (Q13464 1-477): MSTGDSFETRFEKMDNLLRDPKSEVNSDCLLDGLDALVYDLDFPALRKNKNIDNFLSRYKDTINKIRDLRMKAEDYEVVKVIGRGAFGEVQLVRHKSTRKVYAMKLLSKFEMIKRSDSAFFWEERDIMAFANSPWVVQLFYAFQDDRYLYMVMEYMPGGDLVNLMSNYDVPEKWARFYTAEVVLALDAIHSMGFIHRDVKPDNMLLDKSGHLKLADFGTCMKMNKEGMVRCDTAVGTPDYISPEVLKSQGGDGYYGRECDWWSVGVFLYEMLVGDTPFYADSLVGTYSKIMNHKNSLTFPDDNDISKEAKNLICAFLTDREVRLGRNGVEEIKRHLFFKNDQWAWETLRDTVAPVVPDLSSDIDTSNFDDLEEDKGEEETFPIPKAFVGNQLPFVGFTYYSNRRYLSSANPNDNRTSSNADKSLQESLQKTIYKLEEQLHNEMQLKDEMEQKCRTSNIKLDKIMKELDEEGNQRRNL

`Cc1nocc1-c1ccc2c(=O)n(Cc3cc(F)cc(C(=O)NCC4CCN(C)CC4)c3)ccc2c1` [Compound 149]: the results for the IC50 in test [1] and in test [2] were 11 to 100 nM and < 10 nM, respectively.
For `Cc1nocc1-c1ccc2c(=O)n(Cc3cc(F)cc(C(=O)NCC4CCNCC4)c3)ccc2c1` [Compound 150] the same measures were 11 to 100 nM and < 10 nM.
Regarding `Cc1nocc1-c1ccc2c(=O)n(Cc3cc(F)cc(C(=O)NCC4CCN(C5CC5)CC4)c3)ccc2c1` [Compound 151], the IC50 was 11 to 100 nM in test [1] and < 10 nM in test [2].
Consider `Cc1nocc1-c1ccc2c(=O)n(Cc3cc(F)cc(C(=O)NCC4CCN(C(C)C)CC4)c3)ccc2c1` [Compound 152], for which the IC50 was in the range of 101 to 500 nM in test [1] and 10 to 100 nM in test [2].
As to `Cc1nocc1-c1ccc2c(=O)n(Cc3cc(F)cc(C(=O)NCC4CCN(CC(F)(F)F)CC4)c3)ccc2c1` [Compound 153], the IC50 in test [1] is 101 to 500 nM; in test [2] it was < 10 nM.
Regarding `Cc1nocc1-c1ccc2c(=O)n(Cc3cc(F)cc(C(=O)NCC4CCN(C5COC5)CC4)c3)ccc2c1` [Compound 154], the figures for the IC50 in test [1] and in test [2] were 101 to 500 nM and < 10 nM, respectively.
As to `Cc1nocc1-c1ccc2c(=O)n(Cc3cc(F)cc(C(=O)Nc4ccn(C)n4)c3)ccc2c1` [Compound 156], the IC50 in test [1] was 11 to 100 nM; in test [2], < 10 nM.
For `Cc1nocc1-c1ccc2c(=O)n(Cc3cc(F)cc(C(=O)Nc4nc5c(s4)CCNC5)c3)ccc2c1` [Compound 157], the IC50 was 11 to 100 nM in test [1] and < 10 nM in test [2].
As for `Cc1nocc1-c1ccc2c(=O)n(Cc3cc(F)cc(C(=O)Nc4nc5c(s4)CCN(C)C5)c3)ccc2c1` [Compound 158], the IC50 in test [1] was 11 to 100 nM; in test [2], < 10 nM.
With `Cc1nocc1-c1ccc2c(=O)n(Cc3cc(F)cc(C(=O)Nc4nc5c(s4)CCN(C(C)C)C5)c3)ccc2c1` [Compound 159], the IC50 is 11 to 100 nM in test [1] and < 10 nM in test [2].
For `Cc1nocc1-c1ccc2c(=O)n(Cc3cc(F)cc(C(=O)Nc4ccc5c(c4)CNCC5)c3)ccc2c1` [Compound 160], the values for the IC50 in test [1] and in test [2] were 11 to 100 nM and < 10 nM, respectively.
On to `Cc1nocc1-c1ccc2c(=O)n(Cc3cc(F)cc(C(=O)Nc4ccc5c(c4)CN(C4CC4)CC5)c3)ccc2c1` [Compound 161], for which the results for the IC50 in test [1] and in test [2] were 11 to 100 nM and < 10 nM, respectively.
Turning to `Cc1nocc1-c1ccc2c(=O)n(Cc3cc(F)cc(C(=O)Nc4ccc5c(c4)CCNC5)c3)ccc2c1` [Compound 162], the IC50 in test [1] and in test [2] was < 10 nM each time.
As to `Cc1nocc1-c1ccc2c(=O)n(Cc3cc(F)cc(C(=O)Nc4ccc5c(c4)CCN(C)C5)c3)ccc2c1` [Compound 163], the IC50 in test [1] and in test [2] was < 10 nM in each case.
For `Cn1nccc1-c1ccc2c(=O)n(Cc3cc(F)cc(C(=O)N[C@H]4CC[C@H](O)CC4)c3)ccc2c1` [Compound 164], the IC50 in test [1] was 101 to 500 nM; in test [2], 10 to 100 nM.
On to `Cn1nccc1-c1ccc2c(=O)n(Cc3cc(F)cc(C(=O)NC4CCOCC4)c3)ccc2c1` [Compound 166], for which the results for the IC50 in test [1] and in test [2] were 101 to 500 nM and 10 to 100 nM, respectively.
For `Cn1nccc1-c1ccc2c(=O)n(Cc3cccc(C(=O)NCC4CC(O)C4)c3)ccc2c1` (stereo not shown) [Compound 167] the same measures were 11 to 100 nM and < 10 nM.
On to `CN1CC(CNC(=O)c2cccc(Cn3ccc4cc(-c5ccnn5C)ccc4c3=O)c2)C1` [Compound 168], for which the IC50 in test [1] and in test [2] was < 10 nM each time.
With `Cn1nccc1-c1ccc2c(=O)n(Cc3cccc(C(=O)NCC4CCNCC4)c3)ccc2c1` [Compound 169], the IC50 in test [1] and in test [2] was < 10 nM each time.
In the case of `Cn1nccc1-c1ccc2c(=O)n(Cc3cccc(C(=O)NCC4CCN(CC(F)F)CC4)c3)ccc2c1` [Compound 170], the IC50 in test [1] is 11 to 100 nM; in test [2] it was < 10 nM.
As to `CN1CCC(CNC(=O)c2cccc(Cn3ccc4cc(-c5ccnn5C)ccc4c3=O)c2)CC1` [Compound 171], the IC50 in test [1] is 11 to 100 nM; in test [2], < 10 nM.
On to `CN1CCC(CNC(=O)c2cc(F)cc(Cn3ccc4cc(-c5ccnn5C)ccc4c3=O)c2)CC1` [Compound 172], for which the IC50 in test [1] is 11 to 100 nM; in test [2], < 10 nM.
For the compound `Cn1nccc1-c1ccc2c(=O)n(Cc3cc(F)cc(C(=O)NCC4CCNCC4)c3)ccc2c1` [Compound 173], the results for the IC50 in test [1] and in test [2] were 11 to 100 nM and < 10 nM, respectively.
For `Cn1nccc1-c1ccc2c(=O)n(Cc3cc(F)cc(C(=O)NCc4ccc(F)nc4)c3)ccc2c1` [Compound 174], the IC50 in test [1] is 11 to 100 nM; in test [2], < 10 nM.
Taken in the same sequence, the figures for `CC(C)N1CCC(NC(=O)c2cc(F)cc(Cn3ccc4cc(-c5ccnn5C)ccc4c3=O)c2)CC1` [Compound 175] were 101 to 500 nM and 10 to 100 nM.
With `CN1CCC(NC(=O)c2cc(F)cc(Cn3ccc4cc(-c5ccnn5C)ccc4c3=O)c2)CC1` [Compound 176], the IC50 was 11 to 100 nM in test [1] and 10 to 100 nM in test [2].
With `Cn1nccc1-c1ccc2c(=O)n(Cc3cc(F)cc(C(=O)NC4CCNCC4)c3)ccc2c1` [Compound 177], the IC50 is 11 to 100 nM in test [1] and < 10 nM in test [2].
For `Cn1ccc(NC(=O)c2cc(F)cc(Cn3ccc4cc(-c5ccnn5C)ccc4c3=O)c2)n1` [Compound 179] the same measures were 11 to 100 nM and < 10 nM.
Take `Nc1cc(-c2ccc3c(=O)n(Cc4cccc(C(=O)NCc5ccccc5)c4)ccc3c2)ccn1` [Compound 181]: the IC50 is 101 to 500 nM in test [1] and 10 to 100 nM in test [2].
On to `Nc1cc(-c2ccc3c(=O)n(Cc4cccc(C(=O)NCc5ccc6ccccc6c5)c4)ccc3c2)ccn1` [Compound 182], for which the IC50 was > 501 nM in test [1] and 100 to 500 nM in test [2].
Taken in the same sequence, the figures for `NCc1ccccc1CNC(=O)c1cccc(Cn2ccc3cc(-c4ccnc(N)c4)ccc3c2=O)c1` [Compound 183] were 101 to 500 nM and 10 to 100 nM.
Consider `Nc1cc(-c2ccc3c(=O)n(Cc4cccc(C(=O)NCCc5ccccc5)c4)ccc3c2)ccn1` [Compound 185], for which the IC50 lay in the range of 101 to 500 nM in test [1] and 10 to 100 nM in test [2].
Take `Nc1cc(-c2ccc3c(=O)n(Cc4cccc(C(=O)Nc5ccc6c(c5)CNCC6)c4)ccc3c2)ccn1` [Compound 187]: the concentration for half-maximal inhibition (IC50) was 11 to 100 nM in test [1] and < 10 nM in test [2].
Regarding `CN1CCc2cc(NC(=O)c3cccc(Cn4ccc5cc(-c6ccnc(N)c6)ccc5c4=O)c3)ccc2C1` [Compound 189], the IC50 in test [1] and in test [2] was < 10 nM each time.
Take `Nc1cc(-c2ccc3c(=O)n(Cc4cccc(C(=O)Nc5nc6c(s5)CNCC6)c4)ccc3c2)ccn1` [Compound 190]: the IC50 in test [1] and in test [2] was < 10 nM throughout.
Regarding `Nc1cc(-c2ccc3c(=O)n(Cc4cccc(C(=O)N[C@H]5CC[C@@H](O)CC5)c4)ccc3c2)ccn1` [Compound 192], the IC50 in test [1] fell in the range of 11 to 100 nM; in test [2], 10 to 100 nM.
As for `Nc1cc(-c2ccc3c(=O)n(Cc4cccc(C(=O)N[C@H]5CC[C@H](O)CC5)c4)ccc3c2)ccn1` [Compound 193], the figures for the IC50 in test [1] and in test [2] were 101 to 500 nM and 10 to 100 nM, respectively.
Take `Nc1cc(-c2ccc3c(=O)n(Cc4cccc(C(=O)NC5CCOCC5)c4)ccc3c2)ccn1` [Compound 194]: the IC50 in test [1] is 101 to 500 nM; in test [2], 10 to 100 nM.

By IC50 is commonly meant the point on the concentration scale where inhibition reaches its midpoint.
